The source of these data is US9364448B2, “Nitisinone for treatment of oculocutaneous/ocular albinism and for increasing pigmentation” (The United States of America, as represented by the …, priority 2010, dated 2016).

Common to all, as to format: cell-based
One assay has as its target T1, H420R mouse tyrosinase (Mus musculus, UniProt P11344, H420R).
T1 construct: expressed in transfected cells; host or cells: CHO cells, pcDNA3.1
T1 sequence (P11344 19-533 H420R): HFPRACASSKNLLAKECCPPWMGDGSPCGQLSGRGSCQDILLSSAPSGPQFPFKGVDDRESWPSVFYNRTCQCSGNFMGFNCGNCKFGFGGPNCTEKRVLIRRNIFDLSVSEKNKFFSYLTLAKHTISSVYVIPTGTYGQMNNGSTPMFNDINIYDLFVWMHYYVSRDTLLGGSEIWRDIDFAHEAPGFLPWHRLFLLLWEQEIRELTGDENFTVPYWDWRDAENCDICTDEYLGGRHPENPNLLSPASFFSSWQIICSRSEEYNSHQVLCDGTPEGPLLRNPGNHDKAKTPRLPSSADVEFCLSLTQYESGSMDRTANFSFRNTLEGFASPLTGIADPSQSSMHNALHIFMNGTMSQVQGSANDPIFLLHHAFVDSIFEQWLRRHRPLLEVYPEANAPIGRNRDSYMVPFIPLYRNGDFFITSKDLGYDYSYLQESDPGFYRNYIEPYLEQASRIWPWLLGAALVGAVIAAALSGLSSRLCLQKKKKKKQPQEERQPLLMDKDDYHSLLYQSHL
Nature of the assay: Tyrosinase protein stability in CHO cells with cycloheximide, H420R. The conditions noted are these: 1 mM tyrosine, later time points (9 and 24 hours). The method, then: In Vitro Expression and Enzyme Activity. The expression construct of mouse Tyr was a kind gift of Dr. C. Olivares from the School of Medicine of the University of Murcia (Spain). This construct was prepared in the pcDNA3.1 expression vector (Invitrogen, Carlsbad, Calif.) using EcoRI/XbaI restriction sites and based on the mouse Tyr clone obtained as described previously in C. Olivares, et al., Biochem. J., 354:131 (2001). Constructs of tyrosinase gene mutant variants, with changes corresponding to missense mutations R77L and H420R in the mouse tyrosinase protein sequence, were created using standard methodologies (Mutagenex Inc., Piscataway, N.J.). […]
Chinese hamster ovary cells (CHO) (generous gift from Dr. J. T. Wroblewski from the Pharmacology Department, Georgetown University Medical Center, Washington D.C.) were grown at a temperature of about 37° C. in DMEM media, in the presence of 10% fetal bovine serum, 1% penicillin and 4.5 g […] per 0.5 liter of media. […] The total protein content in protein lysates was determined spectrophotometrically as a 280/260 ratio. Protein expression was analyzed by Western blotting, and GAPDH was used as an internal loading control. For the analysis, Western blots were scanned, intensities of protein bands were determined, and ratios of band intensities for the wild type or mutant variants, to that of GAPDH were calculated. […]

The subject of assay [1] is wild-type human melanocytes. Nature of the assay: Human melanocyte melanin assay, wild-type (control). The conditions noted are these: 1 mM tyrosine, about one week. How it is done: (§1) Human melanocyte culture and melanin assay. Human melanocytes were established from skin punch biopsies. Skin specimens were washed with PBS then treated with 0.25% trypsin-EDTA (Gibco 25200) for about 2 hours followed by vigorous vortexing to separate the epidermis. The epidermis was sectioned and attached to scored patches on the bottom of a 6-well polystyrene culture dish before being covered with melanocyte media. About 1000 ml of melanocyte media was made from 950 ml Ham's F10 (Gibco 1550), 25 ml FBS, 5 ug bFGF (Sigma F0291), 10 μg endothelin (Sigma, E7764, Sigma Chemicals, St. Louis, Mo.), 7.5 mg IBMX (Sigma 17018), 30 μg cholera toxin (Sigma C8052), 3.3 μg TPA (Sigma P8139), 10 ml PenStrepGlutamine, 1 ml fungizone and the media was 0.22 μm filtered.
(§2) Melanocytes were plated on 6 well dishes and grown to confluency. Melanin assays were run in triplicate by supplementing three wells per plate with 1 mM tyrosine (Sigma T8566), using the remaining 3 wells as untreated controls. Treatment time was approximately one week. […] The OD475 was measured and converted to melanin content via a standard curve using synthetic melanin (Sigma M0418). The data were normalized to protein content, determined using a bicinchoninic (BCA) assay kit (BioRad, Inc., Hercules, Calif.). Differences between treated and untreated measurements were analyzed with a two-tailed unpaired t-test. […]

The test system of assay [2] is melanocytes from a patient with OCA-1B. Nature of the assay: Human melanocyte melanin assay, OCA-1B patient. The conditions noted are these: 1 mM tyrosine, p=0.0025, not to wild-type level. The method, then: as §1, §2

Take `N[C@@H](Cc1ccc(O)cc1)C(=O)O` [tyrosine]: at H420R mouse tyrosinase, the “Stability of H420R mutant tyrosinase protein relative to GAPDH” value is listed as “improved the stability”. Further, the Melanin production entry in assay [1] was “produce significant melanin”. Moreover, the Pigmentation entry in assay [2] is “significantly increased pigmentation”.
